The results in this text go back to the SangsterLogP compilation.

One may read the logP as the decadic logarithm of the partition coefficient of the neutral form, usually between octanol and water. Lower therefore signals a more hydrophilic compound.

SMILES strings stand for the structures.

In turn, `CCC(CC)OC(Cn1ccnc1)c1ccc(Cl)cc1Cl` (stereo unspecified) gave a logP of 5.13. The result for `CC(C)=CCOC(Cn1ccnc1)c1ccc(Cl)cc1Cl` (stereo unspecified) reads 5.04. The result for `C=CCCCOC(Cn1ccnc1)c1ccc(Cl)cc1Cl` (stereo unspecified) reads 4.94; that for `CCCCC(CC)COC(Cn1ccnc1)c1ccc(Cl)cc1Cl` (stereo unspecified), 6.89; that for `CCC(C)OC(Cn1ccnc1)c1ccc(Cl)cc1Cl` (stereo unspecified), 4.5.

For `C=CCCOC(Cn1ccnc1)c1ccc(Cl)cc1Cl` (stereo unspecified), the logP was 4.33. The logP values of the last two molecules are within 0.2 log units of each other. The result for `C=C(C)COC(Cn1ccnc1)c1ccc(Cl)cc1Cl` (stereo unspecified) reads 4.26; that for `CCCC(C)OC(Cn1ccnc1)c1ccc(Cl)cc1Cl` (stereo unspecified), 4.9; that for `CCC(CC)COC(Cn1ccnc1)c1ccc(Cl)cc1Cl` (stereo unspecified), 6.24. The result for `CC(C)CCOC(Cn1ccnc1)c1ccc(Cl)cc1Cl` (stereo unspecified) reads 5.71; that for `Clc1ccc(C(Cn2ccnc2)OCC2CCCCC2)c(Cl)c1` (stereo unspecified), 6.5.
